Tests used:
[1] = molecular target: dephosphorylated FGFR1 (Homo sapiens (Human), UniProt P11362); assay: FGFR Enzyme Binding Assay (HTRF tracer displacement), FGFR1; settings: 5 nM dephosphorylated FGFR1, 60 minute incubation at 22° C.; read-out: FGFR1 Enz Binding IC50
Protocol: (§1) The potency of compounds inhibiting human isoforms of FGFR kinase was determined using Life Technologies' Homogeneous Time Resolved Fluorescence (HTRF)-based binding assay technology. An incubation was conducted with either 5 nM dephosphorylated FGFR1 (Array Biopharma, p1702; SEQ ID NO: 1, amino acids 458 to 765, dephosphorylated by co-expression with PTP1b (protein tyrosine phosphatase 1B)), 5 nM dephosphorylated FGFR2 (Life Technologies, Cat. No. PV4106 that had been dephosphorylated with Lambda protein phosphatase (New England Biolabs, cat #P0753)) or 5 nM phosphorylated FGFR3 (Array Biopharma, p1836; SEQ ID NO: 5, amino acids 449 to 759), 50 nM Kinase Tracer 236 (Life Technologies Cat. No. PR9078A), 2 nM Biotin-anti-6HIS (Life Technologies Cat. No. PV6090) and 2 nM Europium-Streptavidin (Life Technologies Cat. No. PV6025) along with test compound in a buffer consisting of 50 mM HEPES ((4-(2-hydroxyethyl)-1-piperazineethanesulfonic acid, pH 7.5), 5 mM MgCl2, 0.005% Triton X-100, 1 mM DTT, 1 mM NaVO4 and 2% DMSO in a final volume of 12 μL Compounds were typically prepared as a 3-fold or 4-fold serial dilution in DMSO and added to the assay to give the appropriate final concentration. After a 60 minute incubation at 22° C., the extent of tracer displacement was determined using a PerkinElmer EnVision multimode plate reader via HTRF dual wavelength detection, and the percent of control (POC) was calculated using a ratiometric emission factor. One hundred POC was determined using no test compound, and 0 POC was determined in the presence of 1 μM of an appropriate control inhibitor. A 4-parameter logistic curve was fit to the POC values as a function of the concentration of compound, and the IC50 value was the point where the best-fit curve crossed 50 POC.

[2] = molecular target: human wild type FGFR2 (Homo sapiens (Human), UniProt P21802); assay: FGFR2 pFGFR Cell Assay; type: cell-based; settings: HEK-293 cells, 1 hour compound, 30 ng/ml human FGF-acidic, ELISA
Chain of human wild type FGFR2 (P21802 22-821): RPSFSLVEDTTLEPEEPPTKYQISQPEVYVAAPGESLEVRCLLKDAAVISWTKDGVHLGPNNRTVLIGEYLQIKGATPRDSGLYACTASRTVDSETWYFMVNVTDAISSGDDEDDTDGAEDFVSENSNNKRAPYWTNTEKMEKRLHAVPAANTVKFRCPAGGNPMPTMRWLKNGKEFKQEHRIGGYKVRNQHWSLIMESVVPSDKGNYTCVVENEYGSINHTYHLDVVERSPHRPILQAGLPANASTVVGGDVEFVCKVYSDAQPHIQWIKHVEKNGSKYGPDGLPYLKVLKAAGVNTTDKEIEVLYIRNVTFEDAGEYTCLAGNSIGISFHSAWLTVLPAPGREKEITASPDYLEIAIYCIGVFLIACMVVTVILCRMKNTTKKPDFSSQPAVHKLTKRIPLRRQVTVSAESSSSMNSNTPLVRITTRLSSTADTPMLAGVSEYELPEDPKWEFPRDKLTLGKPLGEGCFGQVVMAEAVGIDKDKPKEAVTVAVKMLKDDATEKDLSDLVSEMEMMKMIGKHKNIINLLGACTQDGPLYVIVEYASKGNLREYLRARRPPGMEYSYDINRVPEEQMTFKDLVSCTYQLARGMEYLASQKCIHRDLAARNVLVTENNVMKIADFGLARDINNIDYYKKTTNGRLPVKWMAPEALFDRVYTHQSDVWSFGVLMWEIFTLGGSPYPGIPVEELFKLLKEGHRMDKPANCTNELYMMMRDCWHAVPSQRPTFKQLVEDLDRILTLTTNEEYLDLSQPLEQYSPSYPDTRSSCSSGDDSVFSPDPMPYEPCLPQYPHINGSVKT
Protocol: HEK-293 cells transfected with dox-inducible human wild type FGFR2 (SEQ ID NO: 3) were plated in a collagen or poly-D-lysine coated 96 well flat bottom plates at 4×10^5 cells/well in complete DMEM medium containing 10% FBS and 1 μg/ml doxycycline and allowed to attach for 24 h at 37° C., 5% CO2. Cells were treated with compound using 1:3 serial dilutions with a maximum final concentration of 5 μM. Compound was incubated on cells for 1 hour at 37° C., 5% CO2. Cells were then stimulated with a final concentration of 30 ng/ml human FGF-acidic (R&D Systems Cat number 232-FA/CF) for 5 minutes at 37° C., 5% CO2. Medium was removed and cells were lysed with lysis buffer containing phosphatase and protease inhibitors. Phospho FGFR2 was measured by ELISA (R&D Systems cat. no. DYC684). The ELISA captures total FGFR2 and detects total phospho tyrosine. Optical density was measured for each well using a Versamax reader at a wavelength of 450 nm. 100 POC was determined using no test compounds and 0 POC was determined using a control compound. The POC values were fit to a 4-parameter logistic curve as a function of the concentration of the compound, and the IC50 value is the point where the curve crosses 50 POC.

[3] = molecular target: dephosphorylated FGFR2 (Homo sapiens (Human), UniProt P21802); assay: FGFR Enzyme Binding Assay (HTRF tracer displacement), FGFR2; settings: 5 nM dephosphorylated FGFR2, 60 minute incubation at 22° C.; read-out: FGFR2 Enz Binding IC50
Chain of dephosphorylated FGFR2 (P21802 22-821): as above
Protocol: as §1

Chain of dephosphorylated FGFR1 (P11362 458-765): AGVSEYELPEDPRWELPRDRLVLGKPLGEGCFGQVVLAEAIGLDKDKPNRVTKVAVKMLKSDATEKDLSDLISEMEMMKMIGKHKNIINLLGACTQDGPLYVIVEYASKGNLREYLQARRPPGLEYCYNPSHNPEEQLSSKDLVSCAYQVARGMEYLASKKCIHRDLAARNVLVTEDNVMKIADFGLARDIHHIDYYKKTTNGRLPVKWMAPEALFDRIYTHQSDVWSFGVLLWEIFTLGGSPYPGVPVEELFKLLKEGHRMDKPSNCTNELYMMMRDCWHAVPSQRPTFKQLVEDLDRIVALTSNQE

| SMILES | IC50 [1] | IC50 [2] | IC50 [3] |
| --- | --- | --- | --- |
| C=CC(=O)N1CC(C(=O)N2CCN(c3ccc(-c4cnc5ccc(Nc6cc(OC)cc(OC)c6)cc5n4)cn3)CC2)C1 [Example 5, 1-(3-(4-(5-(7-((3,5-dimethoxyphenyl)amino)-quinoxalin-2-yl)pyridin-2-yl)piperazine-1-carbonyl)azetidin-1-yl)-prop-2-en-1-one] | 623 nM | 486 nM |  |
| COc1cc(Nc2ccc3ncc(-c4ccc(N5CCN(C(=O)C6CN(C(=O)/C=C/CN(C)C)C6)CC5)nc4)nc3c2)cc(OC)c1 [Example 6, (E)-1-(3-(4-(5-(7-((3,5-dimethoxyphenyl)amino)-quinoxalin-2-yl)pyridin-2-yl)piperazine-1-carbonyl)azetidin-1-yl)-4-(dimethylamino)but-2-en-1-one] | 132 nM |  | 14 nM |
| COc1cc(Nc2ccc3ncc(-c4ccc(N5CCN(C(=O)C6(F)CN(C(=O)/C=C/CN(C)C)C6)CC5)nc4)nc3c2)cc(OC)c1 [Example 7, (E)-1-(3-(4-(5-(7-((3,5-dimethoxyphenyl)amino)-quinoxalin-2-yl)pyridin-2-yl)piperazine-1-carbonyl)-3-fluoroazetidin-1-yl)-4-(dimethylamino)but-2-en-1-one] | 342 nM | 182 nM | 18 nM |
| C=CC(=O)N1CC(F)(C(=O)N2CCN(c3ccc(-c4cnc5ccc(Nc6cc(OC)cc(OC)c6)cc5n4)cn3)CC2)C1 [Example 8, 1-(3-(4-(5-(7-((3,5-dimethoxyphenyl)amino)-quinoxalin-2-yl)pyridin-2-yl)piperazine-1-carbonyl)-3-fluoroazetidin-1-yl)-prop-2-en-1-one] | 558 nM |  |  |
| COc1cc(Nc2ccc3ncc(-c4cnn(C5CCN(C(=O)C6CN(C(=O)/C=C/CN(C)C)C6)CC5)c4)nc3c2)cc(OC)c1 [Example 9, (E)-1-(3-(4-(4-(7-((3,5-dimethoxyphenyl)amino)-quinoxalin-2-yl)-1H-pyrazol-1-yl)piperidine-1-carbonyl)azetidin-1-yl)-4-(dimethylamino)but-2-en-1-one] | 22 nM |  |  |
| COc1cc(Nc2ccc3ncc(-c4cnn(C5CCN(C(=O)C6(C#N)CN(C(=O)/C=C/CN(C)C)C6)CC5)c4)nc3c2)cc(OC)c1 [Example 11, (E)-3-(4-(4-(7-((3,5-dimethoxyphenyl)amino)-quinoxalin-2-yl)-1H-pyrazol-1-yl)piperidine-1-carbonyl)-1-(4-(dimethyl-amino)but-2-enoyl)-azetidine-3-carbonitrile] | 44 nM |  |  |
| C=CC(=O)N1CC(C#N)(C(=O)N2CCC(n3cc(-c4cnc5ccc(Nc6cc(OC)cc(OC)c6)cc5n4)cn3)CC2)C1 [Example 12, 1-acryloyl-3-(4-(4-(7-((3,5-dimethoxyphenyl)-amino)quinoxalin-2-yl)-1H-pyrazol-1-yl)-piperidine-1-carbonyl)-azetidine-3-carbonitrile] | 48 nM |  |  |
| COc1cc(Nc2ccc3ncc(-c4ccc(N5CCN(C(=O)C6(F)CN(C(=O)/C=C/CN(C)C)C6)CC5)nc4C)nc3c2)cc(OC)c1 [Example 13, (E)-1-(3-(4-(5-(7-((3,5-dimethoxyphenyl)amino)-quinoxalin-2-yl)-6-methylpyridin-2-yl)-piperazine-1-carbonyl)-3-fluoroazetidin-1-yl)-4-(dimethylamino)but-2-en-1-one] | 6620 nM |  |  |
| COc1cc(Nc2ccc3ncc(-c4cnc(N5CCN(C(=O)C6(F)CN(C(=O)/C=C/CN(C)C)C6)CC5)cc4C)nc3c2)cc(OC)c1 [Example 14, (E)-1-(3-(4-(5-(7-((3,5-dimethoxyphenyl)amino)-quinoxalin-2-yl)-4-methylpyridin-2-yl)-piperazine-1-carbonyl)-3-fluoroazetidin-1-yl)-4-(dimethylamino)but-2-en-1-one] | 4140 nM |  | 290 nM |
| C=CC(=O)N1CC(F)(C(=O)N2CCN(c3cc(C)c(-c4cnc5ccc(Nc6cc(OC)cc(OC)c6)cc5n4)cn3)CC2)C1 [Example 15, 1-(3-(4-(5-(7-((3,5-dimethoxyphenyl)amino)-quinoxalin-2-yl)-4-methylpyridin-2-yl)-piperazine-1-carbonyl)-3-fluoroazetidin-1-yl)prop-2-en-1-one] | 2370 nM |  |  |
| C=CC(=O)N1CC(C(=O)N2CC(n3cc(-c4cnc5ccc(Nc6cc(OC)cc(OC)c6)cc5n4)cn3)C2)C1 [Example 16, 1-(3-(3-(4-(7-((3,5-dimethoxyphenyl)amino)-quinoxalin-2-yl)-1H-pyrazol-1-yl)azetidine-1-carbonyl)azetidin-1-yl)-prop-2-en-1-one] | 30 nM |  |  |
| COc1cc(Nc2ccc3ncc(-c4cnn(C5CCN(C(=O)C6(F)CN(C(=O)/C=C/CN(C)C)C6)CC5)c4C)nc3c2)cc(OC)c1 [Example 17, (E)-1-(3-(4-(4-(7-((3,5-dimethoxyphenyl)amino)-quinoxalin-2-yl)-5-methyl-1H-pyrazol-1-yl)piperi-dine-1-carbonyl)-3-fluoroazetidin-1-yl)-4-(dimethylamino)but-2-en-1-one] | 102 nM | 170 nM |  |
| C=CC(=O)N1CC(C(=O)N2CCC(n3ncc(-c4cnc5ccc(Nc6cc(OC)cc(OC)c6)cc5n4)c3C)CC2)C1 [Example 18, 1-(3-(4-(4-(7-((3,5-dimethoxyphenyl)amino)-quinoxalin-2-yl)-5-methyl-1H-pyrazol-1-yl)piperi-dine-1-carbonyl)azetidin-1-yl)prop-2-en-1-one] | 244 nM |  |  |
| COc1cc(Nc2ccc3ncc(-c4cnn([C@@H]5CCN(C(=O)C6(F)CN(C(=O)/C=C/CN(C)C)C6)C5)c4)nc3c2)cc(OC)c1 [Example 19, (R,E)-1-(3-(3-(4-(7-((3,5-dimethoxyphenyl)amino)-quinoxalin-2-yl)-1H-pyrazol-1-yl)pyrrolidine-1-carbonyl)-3-fluoro-azetidin-1-yl)-4-(dimethyl-amino)but-2-en-1-one] | 55 nM |  |  |
| COc1cc(Nc2ccc3ncc(-c4cnn([C@@H]5CCN(C(=O)C6CN(C(=O)/C=C/CN(C)C)C6)C5)c4)nc3c2)cc(OC)c1 [Example 20, (R,E)-1-(3-(3-(4-(7-((3,5-dimethoxyphenyl)amino)-quinoxalin-2-yl)-1H-pyrazol-1-yl)pyrrolidine-1-carbonyl)azetidin-1-yl)-4-(dimethylamino)but-2-en-1-one] | 53 nM |  |  |
| C=CC(=O)N1CC(C(=O)N2CC[C@@H](n3cc(-c4cnc5ccc(Nc6cc(OC)cc(OC)c6)cc5n4)cn3)C2)C1 [Example 21, (R)-1-(3-(3-(4-(7-((3,5-dimethoxyphenyl)amino)-quinoxalin-2-yl)-1H-pyrazol-1-yl)pyrrolidine-1-carbonyl)azetidin-1-yl)prop-2-en-1-one] | 38 nM |  |  |
| COc1cc(Nc2ccc3ncc(-c4c(C)nn(C5CCN(C(=O)C6(F)CN(C(=O)/C=C/CN(C)C)C6)CC5)c4C)nc3c2)cc(OC)c1 [Example 23, (E)-1-(3-(4-(4-(7-((3,5-dimethoxyphenyl)amino)-quinoxalin-2-yl)-3,5-dimethyl-1H-pyrazol-1-yl)piperidine-1-carbonyl)-3-fluoroazetidin-1-yl)-4-(dimethylamino)but-2-en-1-one] | 842 nM |  | 38 nM |
| C=CC(=O)N1CC(C(=O)N2CCN(c3cccc(-c4cnc5ccc(Nc6cc(OC)cc(OC)c6)cc5n4)c3)CC2)C1 [Example 25, 1-(3-(4-(3-(7-((3,5-dimethoxyphenyl)amino)-quinoxalin-2-yl)phenyl)-piperazine-1-carbonyl)-azetidin-1-yl)prop-2-en-1-one] | 759 nM |  | 157 nM |
| C=CC(=O)N1CC(O)(C(=O)N2CCC(n3cc(-c4cnc5ccc(Nc6cc(OC)cc(OC)c6)cc5n4)cn3)CC2)C1 [Example 26, 1-(3-(4-(4-(7-((3,5-dimethoxyphenyl)amino)quinoxalin-2-yl)-1H-pyrazol-1-yl)piperidine-1-carbonyl)-3-hydroxyazetidin-1-yl)prop-2-en-1-one] | 37 nM |  | 5 nM |

From patent US12351571B2, “Substituted quinoxaline compounds as inhibitors of FGFR tyrosine kinases” (ARRAY BIOPHARMA INC., priority 2018, dated 2025)
